Results as given in the supplement of paper PMC10307832.

Tests used:
Assay in all cases: relative viability (nuclei count vs DMSO), 5 days (fraction); higher = more cells survive
Bexarotene = compound: C=C(c1ccc(C(=O)O)cc1)c1cc2c(cc1C)C(C)(C)CCC2(C)C [Bexarotene]
How it was run: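 For viability, nuclei in each treated well were divided by nuclei in vehicle wells and the median across plates was taken. Lung cancer cell lines in 1536-well plates were pinned with five library-drug doses (not always all listed) spaced by √10, cultured 5 days without medium change, and imaged at 4× after Hoechst staining, with plates passing only at control CV below 25% and at least one doubling.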

Bexarotene + Trametinib = compound: C=C(c1ccc(C(=O)O)cc1)c1cc2c(cc1C)C(C)(C)CCC2(C)C [Bexarotene] + CC(=O)Nc1cccc(-n2c(=O)n(C3CC3)c(=O)c3c(Nc4ccc(I)cc4F)n(C)c(=O)c(C)c32)c1 [Trametinib] (partner 0.02 µM)
How it was run: (§1)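 Lung cancer cell lines were seeded in 1536-well plates and dosed by pin tool the next day, with either a single drug or a fixed anchor-drug dose combined with five library-drug doses (not always all listed) spaced in √10 steps. Five days later, one step fixed the cells and stained their nuclei (final 0.05% Triton X-100, 1% formaldehyde, 1 ug/ml Hoechst), and nuclei were counted on 4× images. Relative viability is the nuclei count in treated wells divided by the count in vehicle wells, and each value is the median of duplicate plates.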

Bexarotene + Palbociclib = compound: C=C(c1ccc(C(=O)O)cc1)c1cc2c(cc1C)C(C)(C)CCC2(C)C [Bexarotene] + CC(=O)c1c(C)c2cnc(Nc3ccc(N4CCNCC4)cn3)nc2n(C2CCCC2)c1=O [Palbociclib] (partner 0.5 µM)
How it was run: as §1

Bexarotene + Luminespib = compound: C=C(c1ccc(C(=O)O)cc1)c1cc2c(cc1C)C(C)(C)CCC2(C)C [Bexarotene] + CCNC(=O)c1noc(-c2cc(C(C)C)c(O)cc2O)c1-c1ccc(CN2CCOCC2)cc1 [Luminespib] (partner 0.01 µM)
How it was run: as §1

Bexarotene + OSI-027 = compound: C=C(c1ccc(C(=O)O)cc1)c1cc2c(cc1C)C(C)(C)CCC2(C)C [Bexarotene] + COc1cccc2cc(-c3nc([C@H]4CC[C@H](C(=O)O)CC4)n4ncnc(N)c34)[nH]c12 [OSI-027] (partner 0.5 µM)
How it was run: as §1

Bexarotene + Tozasertib = compound: C=C(c1ccc(C(=O)O)cc1)c1cc2c(cc1C)C(C)(C)CCC2(C)C [Bexarotene] + Cc1cc(Nc2cc(N3CCN(C)CC3)nc(Sc3ccc(NC(=O)C4CC4)cc3)n2)n[nH]1 [Tozasertib] (partner 0.1 µM)
How it was run: as §1

Bexarotene + Dasatinib = compound: C=C(c1ccc(C(=O)O)cc1)c1cc2c(cc1C)C(C)(C)CCC2(C)C [Bexarotene] + Cc1nc(Nc2ncc(C(=O)Nc3c(C)cccc3Cl)s2)cc(N2CCN(CCO)CC2)n1 [Dasatinib] (partner 0.075 µM)
How it was run: as §1

Bexarotene + Phenformin = compound: C=C(c1ccc(C(=O)O)cc1)c1cc2c(cc1C)C(C)(C)CCC2(C)C [Bexarotene] + N=C(N)NC(=N)NCCc1ccccc1 [Phenformin] (partner 250 µM)
How it was run: as §1

Bexarotene + AZD7762 = compound: C=C(c1ccc(C(=O)O)cc1)c1cc2c(cc1C)C(C)(C)CCC2(C)C [Bexarotene] + NC(=O)Nc1cc(-c2cccc(F)c2)sc1C(=O)N[C@H]1CCCNC1 [AZD7762] (partner 0.2 µM)
How it was run: as §1

Bexarotene + Pemetrexed = compound: C=C(c1ccc(C(=O)O)cc1)c1cc2c(cc1C)C(C)(C)CCC2(C)C [Bexarotene] + Nc1nc2[nH]cc(CCc3ccc(C(=O)N[C@@H](CCC(=O)O)C(=O)O)cc3)c2c(=O)[nH]1 [Pemetrexed] (partner 0.2 µM)
How it was run: as §1

Bexarotene + Decitabine = compound: C=C(c1ccc(C(=O)O)cc1)c1cc2c(cc1C)C(C)(C)CCC2(C)C [Bexarotene] + Nc1ncn([C@H]2C[C@H](O)[C@@H](CO)O2)c(=O)n1 [Decitabine] (partner 2 µM)
How it was run: as §1

Bexarotene + Vorinostat = compound: C=C(c1ccc(C(=O)O)cc1)c1cc2c(cc1C)C(C)(C)CCC2(C)C [Bexarotene] + O=C(CCCCCCC(=O)Nc1ccccc1)NO [Vorinostat] (partner 1 µM)
How it was run: as §1

Bexarotene + Olaparib = compound: C=C(c1ccc(C(=O)O)cc1)c1cc2c(cc1C)C(C)(C)CCC2(C)C [Bexarotene] + O=C(c1cc(Cc2n[nH]c(=O)c3ccccc23)ccc1F)N1CCN(C(=O)C2CC2)CC1 [Olaparib] (partner 8 µM)
How it was run: as §1

Question: Which relative viability (Bexarotene; 0.08 µM) does the source give for NCI-H522 here?
Answer: 1.14

Question: What about the relative viability (Bexarotene; 0.253 µM) of the same cell line?
Answer: 0.872

Question: And the relative viability (Bexarotene; 0.8 µM)?
Answer: 0.957

Question: What about the relative viability (Bexarotene; 2.53 µM) of the same cell line?
Answer: 0.816

Question: What about the relative viability (Bexarotene; 8 µM) of the same cell line?
Answer: 1.02

Question: What about the relative viability (Bexarotene + Trametinib; first compound 0.08 µM) of the same cell line?
Answer: 0.736

Question: And the relative viability (Bexarotene + Trametinib; first compound 0.253 µM)?
Answer: 0.805

Question: What about the relative viability (Bexarotene + Trametinib; first compound 0.8 µM) of the same cell line?
Answer: 0.74

Question: What about the relative viability (Bexarotene + Trametinib; first compound 2.53 µM) of the same cell line?
Answer: 0.797

Question: And the relative viability (Bexarotene + Trametinib; first compound 8 µM)?
Answer: 0.736

Question: And the relative viability (Bexarotene + Palbociclib; first compound 0.08 µM)?
Answer: 1.04

Question: What about the relative viability (Bexarotene + Palbociclib; first compound 0.253 µM) of the same cell line?
Answer: 0.887

Question: And the relative viability (Bexarotene + Palbociclib; first compound 0.8 µM)?
Answer: 1.07

Question: What about the relative viability (Bexarotene + Palbociclib; first compound 2.53 µM) of the same cell line?
Answer: 1.14

Question: And the relative viability (Bexarotene + Palbociclib; first compound 8 µM)?
Answer: 1.04

Question: And the relative viability (Bexarotene + Luminespib; first compound 0.08 µM)?
Answer: 1.24

Question: What about the relative viability (Bexarotene + Luminespib; first compound 0.253 µM) of the same cell line?
Answer: 1.09

Question: And the relative viability (Bexarotene + Luminespib; first compound 0.8 µM)?
Answer: 1.17

Question: And the relative viability (Bexarotene + Luminespib; first compound 2.53 µM)?
Answer: 1.23

Question: What about the relative viability (Bexarotene + Luminespib; first compound 8 µM) of the same cell line?
Answer: 0.899

Question: And the relative viability (Bexarotene + OSI-027; first compound 0.08 µM)?
Answer: 0.722

Question: What about the relative viability (Bexarotene + OSI-027; first compound 0.253 µM) of the same cell line?
Answer: 0.721

Question: What about the relative viability (Bexarotene + OSI-027; first compound 0.8 µM) of the same cell line?
Answer: 0.677

Question: What about the relative viability (Bexarotene + OSI-027; first compound 2.53 µM) of the same cell line?
Answer: 0.706

Question: What about the relative viability (Bexarotene + OSI-027; first compound 8 µM) of the same cell line?
Answer: 0.705

Question: And the relative viability (Bexarotene + Tozasertib; first compound 0.08 µM)?
Answer: 0.551

Question: And the relative viability (Bexarotene + Tozasertib; first compound 0.253 µM)?
Answer: 0.523

Question: What about the relative viability (Bexarotene + Tozasertib; first compound 0.8 µM) of the same cell line?
Answer: 0.562

Question: What about the relative viability (Bexarotene + Tozasertib; first compound 2.53 µM) of the same cell line?
Answer: 0.506

Question: And the relative viability (Bexarotene + Tozasertib; first compound 8 µM)?
Answer: 0.634

Question: And the relative viability (Bexarotene + Dasatinib; first compound 0.08 µM)?
Answer: 0.939

Question: And the relative viability (Bexarotene + Dasatinib; first compound 0.253 µM)?
Answer: 0.874

Question: What about the relative viability (Bexarotene + Dasatinib; first compound 0.8 µM) of the same cell line?
Answer: 0.957

Question: And the relative viability (Bexarotene + Dasatinib; first compound 2.53 µM)?
Answer: 0.842

Question: What about the relative viability (Bexarotene + Dasatinib; first compound 8 µM) of the same cell line?
Answer: 0.93

Question: What about the relative viability (Bexarotene + Phenformin; first compound 0.08 µM) of the same cell line?
Answer: 0.612

Question: What about the relative viability (Bexarotene + Phenformin; first compound 0.253 µM) of the same cell line?
Answer: 0.521

Question: And the relative viability (Bexarotene + Phenformin; first compound 0.8 µM)?
Answer: 0.591

Question: And the relative viability (Bexarotene + Phenformin; first compound 2.53 µM)?
Answer: 0.518

Question: What about the relative viability (Bexarotene + Phenformin; first compound 8 µM) of the same cell line?
Answer: 0.626

Question: And the relative viability (Bexarotene + AZD7762; first compound 0.08 µM)?
Answer: 0.788

Question: What about the relative viability (Bexarotene + AZD7762; first compound 0.253 µM) of the same cell line?
Answer: 0.949

Question: And the relative viability (Bexarotene + AZD7762; first compound 0.8 µM)?
Answer: 0.734

Question: And the relative viability (Bexarotene + AZD7762; first compound 2.53 µM)?
Answer: 0.697

Question: What about the relative viability (Bexarotene + AZD7762; first compound 8 µM) of the same cell line?
Answer: 0.822

Question: And the relative viability (Bexarotene + Pemetrexed; first compound 0.08 µM)?
Answer: 1.01

Question: What about the relative viability (Bexarotene + Pemetrexed; first compound 0.253 µM) of the same cell line?
Answer: 1.18

Question: And the relative viability (Bexarotene + Pemetrexed; first compound 0.8 µM)?
Answer: 1.11

Question: What about the relative viability (Bexarotene + Pemetrexed; first compound 2.53 µM) of the same cell line?
Answer: 0.855

Question: What about the relative viability (Bexarotene + Pemetrexed; first compound 8 µM) of the same cell line?
Answer: 0.862

Question: What about the relative viability (Bexarotene + Decitabine; first compound 0.08 µM) of the same cell line?
Answer: 0.642

Question: And the relative viability (Bexarotene + Decitabine; first compound 0.253 µM)?
Answer: 0.666

Question: And the relative viability (Bexarotene + Decitabine; first compound 0.8 µM)?
Answer: 0.653

Question: What about the relative viability (Bexarotene + Decitabine; first compound 2.53 µM) of the same cell line?
Answer: 0.673

Question: And the relative viability (Bexarotene + Decitabine; first compound 8 µM)?
Answer: 0.609

Question: And the relative viability (Bexarotene + Vorinostat; first compound 0.08 µM)?
Answer: 0.961

Question: And the relative viability (Bexarotene + Vorinostat; first compound 0.253 µM)?
Answer: 0.862

Question: What about the relative viability (Bexarotene + Vorinostat; first compound 0.8 µM) of the same cell line?
Answer: 0.977

Question: And the relative viability (Bexarotene + Vorinostat; first compound 2.53 µM)?
Answer: 0.94

Question: What about the relative viability (Bexarotene + Vorinostat; first compound 8 µM) of the same cell line?
Answer: 1.01

Question: What about the relative viability (Bexarotene + Olaparib; first compound 0.08 µM) of the same cell line?
Answer: 0.666

Question: And the relative viability (Bexarotene + Olaparib; first compound 0.253 µM)?
Answer: 0.66

Question: And the relative viability (Bexarotene + Olaparib; first compound 0.8 µM)?
Answer: 0.635

Question: What about the relative viability (Bexarotene + Olaparib; first compound 2.53 µM) of the same cell line?
Answer: 0.564

Question: And the relative viability (Bexarotene + Olaparib; first compound 8 µM)?
Answer: 0.675
